Measurements from PubChem BioAssay AID1963848 (Molecular Pharmacology Branch, DTP, NCI, 2024).

System: 379773-124-R-J2-PDC spheroid viability
Assay: Anticancer human tumor 379773-124-R-J2-PDC patient-derived endometrial carcinoma cell line growth inhibition [POLQ]
Conditions: spheroids with HUVEC and MSC; for IC50: curve of first compound; for viability, T/C: stronger effect = lower value
In short: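 PDC + HUVEC + MSC complex spheroids; POLQ inhibitors ± partner drugs; top conc. at/near clinical Cmax, else 10 microM (SN-38 1 microM), half-log dilutions; 37 degrees C, 5% CO2.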

[1] = second compound 0.0316 µM, first compound 0.00316 µM
[2] = second compound 0.0316 µM, first compound 0.01 µM
[3] = second compound 0.0316 µM, first compound 0.0316 µM
[4] = second compound 0.0316 µM, first compound 0.1 µM
[5] = second compound 0.0316 µM, first compound 0.316 µM
[6] = second compound 0.0316 µM, first compound 1 µM
[7] = second compound 0.1 µM, first compound 0.00316 µM
[8] = second compound 0.1 µM, first compound 0.01 µM
[9] = second compound 0.1 µM, first compound 0.0316 µM
[10] = second compound 0.1 µM, first compound 0.1 µM
[11] = second compound 0.1 µM, first compound 0.316 µM
[12] = second compound 0.1 µM, first compound 1 µM
[13] = second compound 0.316 µM, first compound 0.00316 µM
[14] = second compound 0.316 µM, first compound 0.01 µM
[15] = second compound 0.316 µM, first compound 0.0316 µM
[16] = second compound 0.316 µM, first compound 0.1 µM
[17] = second compound 0.316 µM, first compound 0.316 µM
[18] = second compound 0.316 µM, first compound 1 µM
[19] = second compound 1 µM, first compound 0.00316 µM
[20] = second compound 1 µM, first compound 0.01 µM
[21] = second compound 1 µM, first compound 0.0316 µM
[22] = second compound 1 µM, first compound 0.1 µM
[23] = second compound 1 µM, first compound 0.316 µM
[24] = second compound 1 µM, first compound 1 µM
[25] = second compound 3.16 µM, first compound 0.00316 µM
[26] = second compound 3.16 µM, first compound 0.01 µM
[27] = second compound 3.16 µM, first compound 0.0316 µM
[28] = second compound 3.16 µM, first compound 0.1 µM
[29] = second compound 3.16 µM, first compound 0.316 µM
[30] = second compound 3.16 µM, first compound 1 µM
[31] = second compound 10 µM, first compound 0.00316 µM
[32] = second compound 10 µM, first compound 0.01 µM
[33] = second compound 10 µM, first compound 0.0316 µM
[34] = second compound 10 µM, first compound 0.1 µM
[35] = second compound 10 µM, first compound 0.316 µM
[36] = second compound 10 µM, first compound 1 µM
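Further: spheroids exposed to drugs for seven days before readout.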
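Wherever viability, T/C is given: percent viability relative to DMSO vehicle control taken as 100%.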

## C=CCn1c(=O)c2cnc(Nc3ccc(N4CCN(C)CC4)cc3)nc2n1-c1cccc(C(C)(C)O)n1 + Cc1cccc(N(C)C(=O)C2C(O)CCN2c2nc(C)cc(C(F)(F)F)c2C#N)c1
Second compound 0.0316 µM
  IC50: 457 nM
Second compound 0.1 µM
  IC50: 441 nM
Second compound 0.316 µM
  IC50: 411 nM
Second compound 1 µM
  IC50: 416 nM
Second compound 3.16 µM
  IC50: 443 nM
Second compound 10 µM
  IC50: 406 nM
[1]
  viability, T/C: 88.5%
[2]
  viability, T/C: 86%
[3]
  viability, T/C: 85.2%
[4]
  viability, T/C: 98%
[5]
  viability, T/C: 72.2%
[6]
  viability, T/C: 3.05%
[7]
  viability, T/C: 91.4%
[8]
  viability, T/C: 98.3%
[9]
  viability, T/C: 93.1%
[10]
  viability, T/C: 98.1%
[11]
  viability, T/C: 68.8%
[12]
  viability, T/C: 3.55%
[13]
  viability, T/C: 100%
[14]
  viability, T/C: 91.5%
[15]
  viability, T/C: 96.4%
[16]
  viability, T/C: 90.8%
[17]
  viability, T/C: 63.6%
[18]
  viability, T/C: 4%
[19]
  viability, T/C: 86.5%
[20]
  viability, T/C: 96.7%
[21]
  viability, T/C: 95.1%
[22]
  viability, T/C: 95.3%
[23]
  viability, T/C: 64.9%
[24]
  viability, T/C: 2.86%
[25]
  viability, T/C: 98.2%
[26]
  viability, T/C: 90.2%
[27]
  viability, T/C: 88.2%
[28]
  viability, T/C: 94%
[29]
  viability, T/C: 69.5%
[30]
  viability, T/C: 2.86%
[31]
  viability, T/C: 87.5%
[32]
  viability, T/C: 86.1%
[33]
  viability, T/C: 85.9%
[34]
  viability, T/C: 89.5%
[35]
  viability, T/C: 63%
[36]
  viability, T/C: 3.05%

## CCc1c2c(nc3ccc(O)cc13)-c1cc3c(c(=O)n1C2)COC(=O)[C@]3(O)CC + Nc1ccc(C#CCN(C(=O)Cc2ncc(C(F)(F)F)cc2C(F)(F)F)c2ccc(F)cc2)nn1
Second compound 0.0316 µM
  IC50: < 3.16 nM
Second compound 0.1 µM
  IC50: 3.52 nM
Second compound 0.316 µM
  IC50: < 3.16 nM
Second compound 1 µM
  IC50: < 3.16 nM
Second compound 3.16 µM
  IC50: < 3.16 nM
Second compound 10 µM
  IC50: < 3.16 nM
[1]
  viability, T/C: 45.5%
[2]
  viability, T/C: 17.6%
[3]
  viability, T/C: 12.6%
[4]
  viability, T/C: 4.69%
[5]
  viability, T/C: 3.2%
[6]
  viability, T/C: 1.03%
[7]
  viability, T/C: 53.6%
[8]
  viability, T/C: 16.7%
[9]
  viability, T/C: 13.1%
[10]
  viability, T/C: 4.92%
[11]
  viability, T/C: 1.48%
[12]
  viability, T/C: 0.65%
[13]
  viability, T/C: 48.6%
[14]
  viability, T/C: 12.6%
[15]
  viability, T/C: 11.1%
[16]
  viability, T/C: 4.23%
[17]
  viability, T/C: 1.5%
[18]
  viability, T/C: 0.7%
[19]
  viability, T/C: 47.8%
[20]
  viability, T/C: 13.7%
[21]
  viability, T/C: 10.4%
[22]
  viability, T/C: 5.54%
[23]
  viability, T/C: 1.41%
[24]
  viability, T/C: 3.04%
[25]
  viability, T/C: 47.9%
[26]
  viability, T/C: 15.1%
[27]
  viability, T/C: 9.79%
[28]
  viability, T/C: 3.28%
[29]
  viability, T/C: 1.52%
[30]
  viability, T/C: 0.83%
[31]
  viability, T/C: 41.9%
[32]
  viability, T/C: 14.7%
[33]
  viability, T/C: 11.6%
[34]
  viability, T/C: 4.49%
[35]
  viability, T/C: 1.89%
[36]
  viability, T/C: 0.9%

## COc1cccc(OCCCN)c1-c1cc(Nc2cnc(C#N)cn2)n[nH]1 + COC1C(OC(N)=O)C(O)C(Oc2ccc3c(O)c(NC(=O)c4ccc(O)c(CC=C(C)C)c4)c(=O)oc3c2C)OC1(C)C
Second compound 0.0316 µM
  IC50: 4.43 nM
Second compound 0.1 µM
  IC50: 3.53 nM
Second compound 0.316 µM
  IC50: 3.5 nM
Second compound 1 µM
  IC50: 4.46 nM
Second compound 3.16 µM
  IC50: 3.76 nM
Second compound 10 µM
  IC50: 3.81 nM
[1]
  viability, T/C: 69.1%
[2]
  viability, T/C: 3.94%
[3]
  viability, T/C: 2.78%
[4]
  viability, T/C: 2%
[5]
  viability, T/C: 1.77%
[6]
  viability, T/C: 1.34%
[7]
  viability, T/C: 54.7%
[8]
  viability, T/C: 5.02%
[9]
  viability, T/C: 2.47%
[10]
  viability, T/C: 1.87%
[11]
  viability, T/C: 2.26%
[12]
  viability, T/C: 1.32%
[13]
  viability, T/C: 54.3%
[14]
  viability, T/C: 4.98%
[15]
  viability, T/C: 2.58%
[16]
  viability, T/C: 1.9%
[17]
  viability, T/C: 1.7%
[18]
  viability, T/C: 0.97%
[19]
  viability, T/C: 69.2%
[20]
  viability, T/C: 5.09%
[21]
  viability, T/C: 1.91%
[22]
  viability, T/C: 2%
[23]
  viability, T/C: 1.74%
[24]
  viability, T/C: 1.47%
[25]
  viability, T/C: 57.9%
[26]
  viability, T/C: 5.31%
[27]
  viability, T/C: 2.5%
[28]
  viability, T/C: 2.18%
[29]
  viability, T/C: 1.81%
[30]
  viability, T/C: 1.54%
[31]
  viability, T/C: 58.8%
[32]
  viability, T/C: 4.41%
[33]
  viability, T/C: 2.84%
[34]
  viability, T/C: 2.3%
[35]
  viability, T/C: 3.07%
[36]
  viability, T/C: 1.39%
